The values below come from US20260258113A1, “BETA GLOBIN MIMETIC PEPTIDES AND THEIR USE” (THE UNITED STATES OF AMERICA, AS REPRESENTED BY THE …, priority 2022, published 2026).

Values joined by “and” are separate entries in the source; they are usually repeats but may differ in a detail not shown here. Equal entries are not always repeated. “Also recorded” adds a separate entry of the source.

One assay concerns human omental arteries. The assay can be described thus: Isolated artery pressure myography: vasoconstriction to phenylephrine after alpha globin mimetic or control peptide, then L-NAME. Type of assay: cell-based. Set-up: key to Top (Mean) / Bottom (Mean): fitted inner diameter, % of baseline. As to conditions: for Bottom (Mean) / Top (Mean): four parameter logistic fit of inner diameter (percentage of baseline) vs phenylephrine; for maximal constriction to phenylephrine (4-PL minimum): pairs of omental arteries from five donors; for effect on vasoconstriction response to PE: omental arteries incubated with peptide, 5 μmol/L. How it is done:
To test this hypothesis, ex vivo pressure myography was performed on pairs of omental arteries obtained from each of five donors in response to escalating doses of the alpha adrenoreceptor agonist phenylephrine (responses fit with four parameter logistic regression best-fit values, FIGS. 6A-6B).
Isolated artery pressure myography: The pressure myography methodology utilized here for omental arteries is consistent with published protocols for assessing reactivity of mesenteric articles using a DMT pressure myograph (Shahid and Buys, JoVE J Vis Exp. 7.76:50328, 2013). Arteries […] in diameter were dissected from omental tissue on ice and transferred to the culture myograph wells (DMT-USA CM204); arterial inner diameter was measured by video microscope (DMT-USA) with digital calipers (MyoVIEW, DMT-USA).
All arteries used developed at least 20% myogenic tone after pressurization, consistent with standards for pressure myography (Shahid and Buys, JoVE J Vis Exp. 7.76:50328, 2013; Butcher et al., JoVE J Vis Exp. 28.62:3674, 2012; Jadeja et al., JoVE J Vis Exp. 6.101:e50997, 2015). Arteries were assessed for vasoconstriction response to the alpha-1-adrenoreceptor agonist phenylephrine (PE) [10^−9-10^−3] M (Sigma-Aldrich). Dose response to PE was then assessed after incubation with either the alpha globin mimetic peptide HbαX or a control peptide (5 μmol/L in KH buffer), and again following incubation with the NOS inhibitor No-Nitro-L-arginine methyl ester HCl (L-NAME, 10^−4 M)(Sigma-Aldrich).

Assay [1] deals with isolated human omental arteries. Nature of the assay: Isolated artery pressure myography: vasoconstriction to phenylephrine after beta globin mimetic peptides. The format is cell-based. The conditions noted are these: peptide 5 μmol/L for 45 minutes at 37° C., ex vivo. How it is done:
Collection of omental arteries: Human omental tissue was collected from patients during clinically indicated abdominal operations at the NIH Clinical Center. All patients provided informed consent for tissue procurement on IRB-approved protocol 13-C-0176 (NCT01915225). Tissue removed by the surgeon was immediately submerged in cold 4° C. Krebs-HEPES (KH) buffer (pH 7.4) and kept on ice during dissection and artery isolation. Small arteries were dissected away from the tissue in cold Krebs-HEPES (KH) buffer (Boston BioProducts).
Identification of beta globin mimetic peptides: Tetrameric hemoglobin was docked with dimer eNOS oxygenase domain using molecular docking algorithms (HADDOCK2). […]
Isolated artery pressure myography: The pressure myography methodology utilized here for omental arteries is consistent with published protocols for assessing reactivity of mesenteric articles using a DMT pressure myograph. […] Digital video calipers were used to measure in the inner diameter of cannulated arteries (MyoVIEW, DMT-USA) at two positions, and the average of both measurements was recorded.
All arteries developed at least 20% myogenic tone after pressurization, consistent with standards for pressure myography. Arteries were assessed for vasoconstriction response to the alpha-1-adrenoreceptor agonist phenylephrine (PE, Sigma-Aldrich) at successively higher doses ranging from 10^−9 to 10^−3 molar. […]

Assay [2] relates to canine resistance arteries. The assay can be described thus: Pressure myography of canine arteries: phenylephrine dose escalation after Hbb-1. Type of assay: cell-based. How it is done:
For these studies, omental tissue was removed from a canine laboratory animals soon after euthanasia. Mesenteric arteries 100-300 um in diameter were dissected out of the tissue and cannulated on glass pipettes. The arteries were incubated in a physiologic buffer solution (Krebs-Henseleit) at 37 degrees Celsius and pressured to 60 mm Hg. To assess vasoreactivity, escalating doses of phenylephrine were added to the incubation bath and artery diameter was measured using video microscopy with edge detection and digital calipers. The artery was incubated with 5 uM Hbb-1 peptide (including the tat cell permeability sequence) for 45 minutes. A second phenylephrine dose escalation was applied, and vasoconstriction was measured. The entire experiment was repeated with a second animal donor. In FIG. 20, artery diameter is presented as a percentage of baseline resting diameter at 60 mm Hg of pressure. The means and standard error of the mean were plotted for each condition and phenylephrine dose.

Assay [3] concerns the target T1, association of alpha globin with eNOS (Mus musculus, UniProt P70313).
T1 construct: host or cells: mice (in vivo), endogenous proteins of resistance arteries
T1 sequence (P70313 2-1202 limits assumed): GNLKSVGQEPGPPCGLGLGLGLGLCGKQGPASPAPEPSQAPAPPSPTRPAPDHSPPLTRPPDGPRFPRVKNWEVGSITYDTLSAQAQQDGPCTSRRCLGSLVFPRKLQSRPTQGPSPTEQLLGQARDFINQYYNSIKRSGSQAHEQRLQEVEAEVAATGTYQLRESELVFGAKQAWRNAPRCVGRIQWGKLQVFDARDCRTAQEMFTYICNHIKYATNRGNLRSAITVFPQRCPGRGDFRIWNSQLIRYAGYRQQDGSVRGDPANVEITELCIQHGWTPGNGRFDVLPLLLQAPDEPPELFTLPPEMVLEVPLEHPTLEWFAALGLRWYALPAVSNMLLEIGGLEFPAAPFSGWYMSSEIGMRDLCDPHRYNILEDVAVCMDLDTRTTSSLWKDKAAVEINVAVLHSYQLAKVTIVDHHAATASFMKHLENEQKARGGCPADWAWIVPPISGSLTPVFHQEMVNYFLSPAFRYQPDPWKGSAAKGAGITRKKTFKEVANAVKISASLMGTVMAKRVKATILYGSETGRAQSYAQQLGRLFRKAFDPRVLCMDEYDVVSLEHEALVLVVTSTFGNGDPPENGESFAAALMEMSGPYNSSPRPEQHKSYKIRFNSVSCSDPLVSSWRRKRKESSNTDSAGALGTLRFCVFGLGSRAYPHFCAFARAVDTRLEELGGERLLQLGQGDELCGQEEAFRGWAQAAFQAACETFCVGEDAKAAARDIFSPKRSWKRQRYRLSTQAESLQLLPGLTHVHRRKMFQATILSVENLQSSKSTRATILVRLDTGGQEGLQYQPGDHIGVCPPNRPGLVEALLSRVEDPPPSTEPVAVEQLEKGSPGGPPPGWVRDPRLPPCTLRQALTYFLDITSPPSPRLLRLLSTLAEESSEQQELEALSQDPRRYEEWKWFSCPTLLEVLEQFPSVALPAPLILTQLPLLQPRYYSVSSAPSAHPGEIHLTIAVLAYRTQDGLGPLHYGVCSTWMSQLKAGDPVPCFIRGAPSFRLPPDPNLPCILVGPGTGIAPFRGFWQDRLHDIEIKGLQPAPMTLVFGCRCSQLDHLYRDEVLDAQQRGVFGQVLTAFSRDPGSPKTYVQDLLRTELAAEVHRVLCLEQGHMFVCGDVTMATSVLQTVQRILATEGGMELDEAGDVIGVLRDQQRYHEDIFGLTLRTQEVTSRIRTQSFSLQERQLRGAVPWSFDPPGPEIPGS
As to conditions: mice; cited from earlier work.

Setting [4] is: n = 5 human donors, peptide 5 μmol/L, L-NAME 10^-4 M.
Setting [5] is: log of phenylephrine concentration, four parameter logistic fit, n = 5 human donors, peptide 5 μmol/L, L-NAME 10^-4 M.
[6] abbreviates: four parameter logistic fit, n = 5 human donors, peptide 5 μmol/L, L-NAME 10^-4 M.

`COC(=O)[C@@H](N)CCCN=C(N)N[N+](=O)[O-].Cl` [L-NAME, No-Nitro-L-arginine methyl ester HCl]: the entries for the “effect of L-NAME on vasoconstriction to PE” value with human omental arteries (control peptide-treated arteries) and in the assay with human omental arteries (mimetic peptide-treated arteries) were “no effect” and “vasoconstriction was restored”, respectively. In addition, the “phenylephrine-induced vasoconstriction after incubation with L-NAME” value in the assay on human omental arteries (mimetic peptide-treated arteries, L-NAME 10^-4 M) was 41.9±2.0 % of baseline.
The term IC50 denotes the concentration that inhibits the measured activity by half. Consider `CNC[C@H](O)c1cccc(O)c1` [Phenylephrine (PE), phenylephrine], for which it took 1000 nM to reach half-maximal inhibition with human omental arteries (Homo sapiens, log of phenylephrine concentration, four parameter logistic fit, n = 5 human donors, peptide 5 μmol/L, L-NAME 10^-4 M) (IC50). In addition, in the assay with human omental arteries (setting [4]), the “Bottom (Mean)” value is 46.11 and 39.08; the “Top (Mean)” value was 100.30 and 100.12. In addition, in the assay with human omental arteries (setting [5]), the “LogIC50 (Mean)” value is listed as −5.891. In addition, in the assay with human omental arteries (peptide 5 μmol/L), the “maximal constriction to phenylephrine (4-PL minimum)” value (“maximal constriction” below) is 39.1±3.2 % of baseline diameter and 46.1±5.5 % of baseline diameter.
In the case of TPEEKSAVTALWGK [Hbb-1], the “effect on human arterial vasoconstriction responses to phenylephrine” value in assay [1] is reported as “can inhibit vasoconstriction”; in assay [1] (listed as Hbb-Peptide-1), “potent vasodilatory effects”. The “increase of phenylephrine dose needed to achieve the same degree of vasoconstriction” value in assay [2] (5 uM Hbb-1 peptide (including tat sequence) for 45 minutes, two animal donors) is reported as “approximately 100 times”. In addition, in assay [2] (5 uM Hbb-1 peptide for 45 minutes), the “effect on phenylephrine-induced vasoconstriction in canine arteries” value is “can inhibit vasoconstriction; also recorded: shifted the vasoconstrictive response to phenylephrine to the right; also recorded: inhibits phenylephrine-induced vasoconstriction”.
Take YGRKKRRQRRRFPYFSTKLTT [control peptide]: in the assay with human omental arteries (setting [4]), the “Bottom (Mean)” value worked out at 45.78 and the “Top (Mean)” value was 100.40. Besides, the “HillSlope (Mean)” value in the assay with human omental arteries (setting [6]) is on record as −0.623. For the same compound, in the assay with human omental arteries (setting [5]), the “LogIC50 (Mean)” value is on record as −6.020. The “effect on vasoconstriction response to PE” value in the assay with human omental arteries is listed as “no significant difference”. Besides, in the assay with human omental arteries (peptide 5 μmol/L), the “maximal constriction” value is recorded as 39.1±3.2 % of baseline diameter.
Consider YGRKKRRQRRRLSFPTTKTYF [HbαX], for which, in the assay on human omental arteries (setting [4]), the “Bottom (Mean)” value was determined as 64.59 and the “Top (Mean)” value was 99.93. Also, the “HillSlope (Mean)” value in the assay on human omental arteries (setting [6]) is −0.549. For the same compound, the “disruption of NO-scavenging in human vessels” value in the assay on human omental arteries (human vessels) is reported as “potent disruptor of NO-scavenging”. For the same compound, the “LogIC50 (Mean)” value with human omental arteries (setting [5]) is listed as −5.575. Besides, in the assay with human omental arteries (listed as alpha globin mimetic peptide), the “effect on vasoconstriction response to PE” value is reported as “significantly inhibited the vasoconstriction response to PE; also recorded: diminished this constriction”. Also, the “maximal constriction” value with human omental arteries (peptide 5 μmol/L) is reported as 64.6±1.6 % of baseline diameter. In assay [3], the alpha-1-adrenergic vasoconstriction entry is listed as “reduced alpha-1-adrenergic vasoconstriction”, the angiotensin-2 induced hypertension result was “protection against angiotensin- 2 induced hypertension”, the “association of alpha globin with eNOS in vivo” value is “disrupt the association of alpha globin with eNOS” and the “mean arterial blood pressure” value is given as “lower mean arterial blood pressure”.
